Experimental data from patent US20140315972A1, “RS)-2-(2-oxo-4-phenylpyrrolidin-1-yl)acetamide compound having modulatory activity with a commensurate effect, pharmaceutical substance (variants) and its application, composition (variants) thereof” (priority 2011, published 2014).
Marks after values point to notes of the source that are not given here.

Test system: mice
Assay: Spontaneous tumors in mice at autopsy
Format: in vivo
Conditions: for spontaneous tumors, Number, in %: mice, untreated control = 100
Procedure: The maximum life span (MLS) of mice according to our long-term statistical observations is 2.7-3, 2 years, i.e. in average 2.95 years or 1077 days. For this study we selected mice (10 individuals per group), males with dominant behavior in mixed groups, that safely survived to 985 days without signs of pronounced senility and with satisfactory orientation-exploratory behavior, determined by the “open field test” method. Phenotropil in doses of 25, 50 and 100 mg/kg was administered orally with 5.0% glucose solution. Glucose solution was used solely to improve the solubility of the drug. One control group received the glucose solution and the second one—distilled water. The third control group was not treated.
The greatest effect (Table 18) was obtained after treatment with Phenotropil in doses of 25 mg/kg (23.3%) and 100 mg/kg (24.0%). […] With a sample of 30 individuals in total in the three groups, we can talk about a high reliability of the findings.

NC(=O)CN1CC(c2ccccc2)CC1=O (racemic) [Compound 1, (RS)-2-(2-oxo-4-phenylpyrrolidine-1-yl)acetamide]
incidence and severity of spontaneous tumors lower by (100 mg/kg): 2.37 times
spontaneous tumors, Number, in % (25 mg/kg + 5.0% glucose solution): 57.0* %
spontaneous tumors, Number, in % (50 mg/kg + 5.0% glucose solution): 74.5* %
spontaneous tumors, Number, in % (100 mg + 5.0% glucose solution): 42.2* %
